Source: the kinase profiling compilation of Christmann-Franck et al. (2016)

What was measured:
Test in all cases: radiometric filter-binding kinase assay, Kinase HotSpot
Conditions in all cases: compound 0.5 µM; ATP 10 µM
MST4 (human) = MST4 (human) (UniProt Q9P289)
PDGFRA (human) = PDGFRA (human) (UniProt P16234)
PAK6 (human) = PAK6 (human) (UniProt Q9NQU5)
MAPK8 (human) = MAPK8 (human) (UniProt P45983)
ERBB2 (human) = ERBB2 (human) (UniProt P04626)
KIT (human) = KIT (human) (UniProt P10721)
MAP3K14 (human) = MAP3K14 (human) (UniProt Q99558)
PRKG2 (human) = PRKG2 (human) (UniProt Q13237)
MARK4 (human) = MARK4 (human) (UniProt Q96L34)
NTRK3 (human) = NTRK3 (human) (UniProt Q16288)
PLK3 (human) = PLK3 (human) (UniProt Q9H4B4)
PAK7 (human) = PAK7 (human) (UniProt Q9P286)
ITK (human) = ITK (human) (UniProt Q08881)
STK4 (human) = STK4 (human) (UniProt Q13043)
FER (human) = FER (human) (UniProt P16591)
CSNK1G2 (human) = CSNK1G2 (human) (UniProt P78368)
STK3 (human) = STK3 (human) (UniProt Q13188)
JAK3 JH1 JH2 (human) = JAK3 JH1 JH2 (human) (UniProt P52333)
NEK1 (human) = NEK1 (human) (UniProt Q96PY6)
RPS6KA2 KD1 KD2 (human) = RPS6KA2 KD1 KD2 (human) (UniProt Q15349)
PRKCB1 (human) = PRKCB1 (human) (UniProt P05771)
CAMK2D (human) = CAMK2D (human) (UniProt Q13557)
PRKCI (human) = PRKCI (human) (UniProt P41743)
MATK (human) = MATK (human) (UniProt P42679)
HIPK3 (human) = HIPK3 (human) (UniProt Q9H422)
EPHA4 (human) = EPHA4 (human) (UniProt P54764)
CSF1R (human) = CSF1R (human) (UniProt P07333)
RPS6KA1 KD1 KD2 (human) = RPS6KA1 KD1 KD2 (human) (UniProt Q15418)
AXL (human) = AXL (human) (UniProt P30530)
STK11 (human) = STK11 (human) (UniProt Q15831)
AURKB (human) = AURKB (human) (UniProt Q96GD4)
CDK7 CCNH MNAT1 (human) = CDK7 CCNH MNAT1 (human) (UniProt P50613+P51948+P51946)
MET (human) = MET (human) (UniProt P08581)
PRKCB2 (human) = PRKCB2 (human) (UniProt P05771)
AKT2 (human) = AKT2 (human) (UniProt P31751)
MAPKAPK5 (human) = MAPKAPK5 (human) (UniProt Q8IW41)
PIM3 (human) = PIM3 (human) (UniProt Q86V86)
DYRK2 (human) = DYRK2 (human) (UniProt Q92630)
IGF1R (human) = IGF1R (human) (UniProt P08069)
EPHB2 (human) = EPHB2 (human) (UniProt P29323)
PIM1 (human) = PIM1 (human) (UniProt P11309)
PKN2 (human) = PKN2 (human) (UniProt Q16513)

Chain of MATK (human) (P42679 whole entry, looked up): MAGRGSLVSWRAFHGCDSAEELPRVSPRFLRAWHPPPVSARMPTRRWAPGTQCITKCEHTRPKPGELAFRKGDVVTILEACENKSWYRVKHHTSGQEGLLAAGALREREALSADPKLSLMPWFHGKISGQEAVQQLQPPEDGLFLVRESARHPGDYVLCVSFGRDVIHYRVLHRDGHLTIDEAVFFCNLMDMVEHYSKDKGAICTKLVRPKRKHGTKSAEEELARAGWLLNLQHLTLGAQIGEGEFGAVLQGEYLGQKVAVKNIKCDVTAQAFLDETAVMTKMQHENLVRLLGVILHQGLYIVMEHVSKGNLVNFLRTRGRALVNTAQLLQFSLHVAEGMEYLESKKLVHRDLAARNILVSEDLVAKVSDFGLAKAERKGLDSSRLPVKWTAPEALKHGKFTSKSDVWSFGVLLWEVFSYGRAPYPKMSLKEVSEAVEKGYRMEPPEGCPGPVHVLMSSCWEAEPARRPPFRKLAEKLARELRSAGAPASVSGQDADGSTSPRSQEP
Chain of EPHB2 (human) (P29323 whole entry, looked up): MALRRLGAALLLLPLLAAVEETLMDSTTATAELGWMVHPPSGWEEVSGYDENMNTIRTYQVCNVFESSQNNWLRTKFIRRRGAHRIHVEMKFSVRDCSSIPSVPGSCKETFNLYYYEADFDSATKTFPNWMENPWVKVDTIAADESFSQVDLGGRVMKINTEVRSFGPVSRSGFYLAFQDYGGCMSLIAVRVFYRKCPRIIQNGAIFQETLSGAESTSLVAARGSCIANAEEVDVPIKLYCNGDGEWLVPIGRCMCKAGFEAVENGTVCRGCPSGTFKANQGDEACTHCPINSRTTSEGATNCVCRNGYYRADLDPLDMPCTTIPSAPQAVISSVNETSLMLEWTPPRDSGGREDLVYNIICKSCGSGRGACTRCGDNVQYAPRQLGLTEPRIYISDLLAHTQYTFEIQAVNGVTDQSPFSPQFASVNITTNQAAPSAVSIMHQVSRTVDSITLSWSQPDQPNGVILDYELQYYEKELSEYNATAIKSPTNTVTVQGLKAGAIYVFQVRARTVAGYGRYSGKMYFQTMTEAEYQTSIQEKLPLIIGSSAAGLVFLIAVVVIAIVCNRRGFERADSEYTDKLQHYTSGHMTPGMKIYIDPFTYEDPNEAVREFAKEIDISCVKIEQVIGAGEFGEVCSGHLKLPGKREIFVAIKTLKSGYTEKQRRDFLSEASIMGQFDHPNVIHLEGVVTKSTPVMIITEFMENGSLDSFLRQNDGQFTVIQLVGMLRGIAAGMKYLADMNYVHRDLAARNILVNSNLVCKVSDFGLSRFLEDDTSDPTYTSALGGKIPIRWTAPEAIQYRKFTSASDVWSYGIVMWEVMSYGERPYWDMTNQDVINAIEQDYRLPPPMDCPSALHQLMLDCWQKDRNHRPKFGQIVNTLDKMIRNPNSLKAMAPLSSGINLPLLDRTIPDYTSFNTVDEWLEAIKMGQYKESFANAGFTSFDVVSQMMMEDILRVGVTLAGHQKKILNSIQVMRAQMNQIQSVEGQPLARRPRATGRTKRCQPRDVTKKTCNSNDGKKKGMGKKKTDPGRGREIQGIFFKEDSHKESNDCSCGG
Chain of NEK1 (human) (Q96PY6 whole entry, looked up): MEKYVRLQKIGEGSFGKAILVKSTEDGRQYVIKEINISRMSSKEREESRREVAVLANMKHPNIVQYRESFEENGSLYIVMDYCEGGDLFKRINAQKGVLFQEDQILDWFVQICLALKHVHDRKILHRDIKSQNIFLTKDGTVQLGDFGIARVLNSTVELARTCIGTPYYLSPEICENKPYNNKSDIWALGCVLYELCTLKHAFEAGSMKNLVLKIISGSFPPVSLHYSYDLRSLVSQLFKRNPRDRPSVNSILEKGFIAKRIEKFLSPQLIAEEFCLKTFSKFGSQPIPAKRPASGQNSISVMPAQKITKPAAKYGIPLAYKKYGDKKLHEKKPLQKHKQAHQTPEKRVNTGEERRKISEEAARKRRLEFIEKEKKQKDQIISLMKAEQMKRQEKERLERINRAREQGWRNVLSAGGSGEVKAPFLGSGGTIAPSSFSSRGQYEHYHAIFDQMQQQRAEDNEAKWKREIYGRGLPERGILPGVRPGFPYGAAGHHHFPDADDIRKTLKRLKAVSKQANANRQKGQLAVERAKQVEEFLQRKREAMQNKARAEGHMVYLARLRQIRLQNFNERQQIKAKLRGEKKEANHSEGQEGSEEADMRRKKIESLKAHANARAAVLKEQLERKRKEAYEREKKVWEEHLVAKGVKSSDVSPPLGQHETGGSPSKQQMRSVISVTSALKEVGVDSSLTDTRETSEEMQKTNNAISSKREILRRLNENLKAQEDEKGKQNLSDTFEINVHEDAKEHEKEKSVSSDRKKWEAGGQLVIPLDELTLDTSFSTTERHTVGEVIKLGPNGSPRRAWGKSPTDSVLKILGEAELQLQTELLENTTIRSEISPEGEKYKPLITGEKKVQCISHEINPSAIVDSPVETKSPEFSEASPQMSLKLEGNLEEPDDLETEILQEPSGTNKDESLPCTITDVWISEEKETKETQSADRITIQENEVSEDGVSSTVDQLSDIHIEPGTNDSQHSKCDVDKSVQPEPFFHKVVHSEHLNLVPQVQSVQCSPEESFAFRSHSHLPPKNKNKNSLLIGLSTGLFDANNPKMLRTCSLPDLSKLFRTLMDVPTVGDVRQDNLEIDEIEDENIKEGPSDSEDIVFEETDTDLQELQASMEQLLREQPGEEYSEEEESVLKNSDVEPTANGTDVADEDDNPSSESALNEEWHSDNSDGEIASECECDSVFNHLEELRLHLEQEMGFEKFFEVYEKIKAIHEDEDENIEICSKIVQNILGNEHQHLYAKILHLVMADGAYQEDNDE
Chain of PAK7 (human) (Q9P286 whole entry, looked up): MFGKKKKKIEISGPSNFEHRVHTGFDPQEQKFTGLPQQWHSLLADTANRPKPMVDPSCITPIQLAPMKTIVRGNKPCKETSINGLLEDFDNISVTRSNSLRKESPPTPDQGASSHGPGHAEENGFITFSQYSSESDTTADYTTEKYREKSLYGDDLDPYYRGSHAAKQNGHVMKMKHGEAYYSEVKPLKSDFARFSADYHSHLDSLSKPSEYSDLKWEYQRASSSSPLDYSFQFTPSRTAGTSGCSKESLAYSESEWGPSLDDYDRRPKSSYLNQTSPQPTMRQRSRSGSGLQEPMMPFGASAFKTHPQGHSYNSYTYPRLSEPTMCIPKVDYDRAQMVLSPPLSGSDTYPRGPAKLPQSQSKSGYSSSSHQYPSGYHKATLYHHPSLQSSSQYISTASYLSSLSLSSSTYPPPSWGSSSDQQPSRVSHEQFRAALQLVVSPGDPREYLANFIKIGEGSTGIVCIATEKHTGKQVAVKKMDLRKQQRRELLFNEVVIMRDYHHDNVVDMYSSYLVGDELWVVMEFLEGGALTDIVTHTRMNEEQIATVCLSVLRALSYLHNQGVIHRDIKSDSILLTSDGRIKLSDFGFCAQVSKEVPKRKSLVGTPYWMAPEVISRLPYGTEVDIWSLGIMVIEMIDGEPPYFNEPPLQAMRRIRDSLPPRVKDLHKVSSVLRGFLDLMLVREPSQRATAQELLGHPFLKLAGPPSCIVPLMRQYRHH
Chain of KIT (human) (P10721 whole entry, looked up): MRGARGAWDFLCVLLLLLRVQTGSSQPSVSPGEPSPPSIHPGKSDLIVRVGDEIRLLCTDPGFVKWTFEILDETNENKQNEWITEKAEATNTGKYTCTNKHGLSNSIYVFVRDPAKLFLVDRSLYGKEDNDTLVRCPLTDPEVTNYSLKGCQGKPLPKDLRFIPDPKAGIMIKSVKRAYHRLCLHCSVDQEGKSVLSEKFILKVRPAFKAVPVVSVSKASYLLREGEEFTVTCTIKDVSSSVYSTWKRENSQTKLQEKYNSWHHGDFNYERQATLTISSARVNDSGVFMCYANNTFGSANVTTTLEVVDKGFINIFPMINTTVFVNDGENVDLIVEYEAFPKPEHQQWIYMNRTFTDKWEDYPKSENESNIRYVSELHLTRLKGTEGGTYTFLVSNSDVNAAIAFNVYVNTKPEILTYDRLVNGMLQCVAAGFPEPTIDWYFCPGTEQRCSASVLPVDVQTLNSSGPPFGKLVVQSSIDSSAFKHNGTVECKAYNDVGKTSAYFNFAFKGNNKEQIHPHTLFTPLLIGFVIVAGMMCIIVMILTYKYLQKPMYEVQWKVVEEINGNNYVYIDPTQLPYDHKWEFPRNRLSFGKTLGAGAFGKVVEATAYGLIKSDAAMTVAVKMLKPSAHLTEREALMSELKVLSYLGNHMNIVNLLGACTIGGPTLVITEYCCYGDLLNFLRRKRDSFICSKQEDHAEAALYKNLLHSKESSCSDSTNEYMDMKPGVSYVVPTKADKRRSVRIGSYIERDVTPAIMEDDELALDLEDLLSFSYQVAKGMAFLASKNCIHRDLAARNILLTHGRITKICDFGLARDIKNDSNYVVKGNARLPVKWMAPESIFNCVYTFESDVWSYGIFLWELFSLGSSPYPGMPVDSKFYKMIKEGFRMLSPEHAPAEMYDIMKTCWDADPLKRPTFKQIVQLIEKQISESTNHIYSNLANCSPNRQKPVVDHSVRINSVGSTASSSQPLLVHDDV
Chain of AKT2 (human) (P31751 whole entry, looked up): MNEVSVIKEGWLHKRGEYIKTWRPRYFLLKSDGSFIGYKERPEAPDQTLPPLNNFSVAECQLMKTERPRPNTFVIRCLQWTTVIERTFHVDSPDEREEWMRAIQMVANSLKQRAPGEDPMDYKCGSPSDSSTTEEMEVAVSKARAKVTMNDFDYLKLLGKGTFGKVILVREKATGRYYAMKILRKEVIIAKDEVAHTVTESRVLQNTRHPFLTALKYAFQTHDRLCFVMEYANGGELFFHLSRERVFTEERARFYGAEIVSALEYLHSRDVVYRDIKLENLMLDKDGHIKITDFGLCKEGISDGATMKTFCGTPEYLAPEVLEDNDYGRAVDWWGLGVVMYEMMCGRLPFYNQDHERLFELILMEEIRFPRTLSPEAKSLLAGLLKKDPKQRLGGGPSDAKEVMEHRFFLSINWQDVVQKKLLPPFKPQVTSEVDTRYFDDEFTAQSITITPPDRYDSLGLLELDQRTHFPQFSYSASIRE

O=C(O)c1ccc2c3c1cccc3c(=O)n1c3ccccc3nc21
residual activity (MST4 (human)): 97.8%
residual activity (PDGFRA (human)): 94.4%
residual activity (PAK6 (human)): 103%
residual activity (MAPK8 (human)): 98%
residual activity (ERBB2 (human)): 99.7%
residual activity (KIT (human)): 93.5%
residual activity (MAP3K14 (human)): 94.8%
residual activity (PRKG2 (human)): 94.8%
residual activity (MARK4 (human)): 88.4%
residual activity (NTRK3 (human)): 67.1%
residual activity (PLK3 (human)): 93.9%
residual activity (PAK7 (human)): 98.7%
residual activity (ITK (human)): 97.7%
residual activity (STK4 (human)): 93.3%
residual activity (FER (human)): 96.5%
residual activity (CSNK1G2 (human)): 93.5%
residual activity (STK3 (human)): 97.1%
residual activity (JAK3 JH1 JH2 (human)): 46.9%
residual activity (NEK1 (human)): 87.8%
residual activity (RPS6KA2 KD1 KD2 (human)): 90.5%
residual activity (PRKCB1 (human)): 89.8%
residual activity (CAMK2D (human)): 93.6%
residual activity (PRKCI (human)): 94.6%
residual activity (MATK (human)): 94%
residual activity (HIPK3 (human)): 103%
residual activity (EPHA4 (human)): 103%
residual activity (CSF1R (human)): 104%
residual activity (RPS6KA1 KD1 KD2 (human)): 101%
residual activity (AXL (human)): 94.3%
residual activity (STK11 (human)): 96.6%
residual activity (AURKB (human)): 82.5%
residual activity (CDK7 CCNH MNAT1 (human)): 92.1%
residual activity (MET (human)): 104%
residual activity (PRKCB2 (human)): 97%
residual activity (AKT2 (human)): 101%
residual activity (MAPKAPK5 (human)): 96%
residual activity (PIM3 (human)): 4.96%
residual activity (DYRK2 (human)): 50.7%
residual activity (IGF1R (human)): 100%
residual activity (EPHB2 (human)): 104%
residual activity (PIM1 (human)): 59.5%
residual activity (PKN2 (human)): 97.9%

O=c1c2ccccc2[nH]c(=S)n1CCN1CCC(=C(c2ccc(F)cc2)c2ccc(F)cc2)CC1
residual activity (MST4 (human)): 91.6%
residual activity (PDGFRA (human)): 97%
residual activity (PAK6 (human)): 98.4%
residual activity (MAPK8 (human)): 98.9%
residual activity (ERBB2 (human)): 98.8%
residual activity (KIT (human)): 103%
residual activity (MAP3K14 (human)): 75.7%
residual activity (PRKG2 (human)): 104%
residual activity (MARK4 (human)): 102%
residual activity (NTRK3 (human)): 98.9%
residual activity (PLK3 (human)): 96.2%
residual activity (PAK7 (human)): 97.4%
residual activity (ITK (human)): 97.1%
residual activity (STK4 (human)): 103%
residual activity (FER (human)): 95.2%
residual activity (CSNK1G2 (human)): 98.6%
residual activity (STK3 (human)): 102%
residual activity (JAK3 JH1 JH2 (human)): 104%
residual activity (NEK1 (human)): 109%
residual activity (RPS6KA2 KD1 KD2 (human)): 107%
residual activity (PRKCB1 (human)): 96%
residual activity (CAMK2D (human)): 97.9%
residual activity (PRKCI (human)): 96.3%
residual activity (MATK (human)): 92.9%
residual activity (HIPK3 (human)): 97.7%
residual activity (EPHA4 (human)): 99.4%
residual activity (CSF1R (human)): 102%
residual activity (RPS6KA1 KD1 KD2 (human)): 97.9%
residual activity (AXL (human)): 91.7%
residual activity (STK11 (human)): 107%
residual activity (AURKB (human)): 102%
residual activity (CDK7 CCNH MNAT1 (human)): 99.6%
residual activity (MET (human)): 114%
residual activity (PRKCB2 (human)): 98.2%
residual activity (AKT2 (human)): 101%
residual activity (MAPKAPK5 (human)): 101%
residual activity (PIM3 (human)): 108%
residual activity (DYRK2 (human)): 95.4%
residual activity (IGF1R (human)): 105%
residual activity (EPHB2 (human)): 92.1%
residual activity (PIM1 (human)): 105%
residual activity (PKN2 (human)): 97.2%

c1ccc(-c2cnc(Nc3ccc(OCCN4CCCC4)cc3)s2)cc1
residual activity (MST4 (human)): 101%
residual activity (PDGFRA (human)): 57.4%
residual activity (PAK6 (human)): 101%
residual activity (MAPK8 (human)): 92.4%
residual activity (ERBB2 (human)): 101%
residual activity (KIT (human)): 20.3%
residual activity (MAP3K14 (human)): 81.9%
residual activity (PRKG2 (human)): 106%
residual activity (MARK4 (human)): 58.9%
residual activity (NTRK3 (human)): 22.6%
residual activity (PLK3 (human)): 98%
residual activity (PAK7 (human)): 87.2%
residual activity (ITK (human)): 85.2%
residual activity (STK4 (human)): 102%
residual activity (FER (human)): 90%
residual activity (CSNK1G2 (human)): 100%
residual activity (STK3 (human)): 108%
residual activity (JAK3 JH1 JH2 (human)): 108%
residual activity (NEK1 (human)): 94.2%
residual activity (RPS6KA2 KD1 KD2 (human)): 85%
residual activity (PRKCB1 (human)): 108%
residual activity (CAMK2D (human)): 48.2%
residual activity (PRKCI (human)): 93.1%
residual activity (MATK (human)): 94.3%
residual activity (HIPK3 (human)): 64.8%
residual activity (EPHA4 (human)): 101%
residual activity (CSF1R (human)): 38.4%
residual activity (RPS6KA1 KD1 KD2 (human)): 78%
residual activity (AXL (human)): 97.1%
residual activity (STK11 (human)): 103%
residual activity (AURKB (human)): 75.8%
residual activity (CDK7 CCNH MNAT1 (human)): 102%
residual activity (MET (human)): 89.7%
residual activity (PRKCB2 (human)): 104%
residual activity (AKT2 (human)): 92.4%
residual activity (MAPKAPK5 (human)): 83.4%
residual activity (PIM3 (human)): 120%
residual activity (DYRK2 (human)): 95%
residual activity (IGF1R (human)): 112%
residual activity (EPHB2 (human)): 75.6%
residual activity (PIM1 (human)): 100%
residual activity (PKN2 (human)): 97%

O=C1NC(=O)c2c1c1c3ccccc3[nH]c1c1[nH]c3cc(Br)ccc3c21
residual activity (MST4 (human)): 80.5%
residual activity (PDGFRA (human)): 97.6%
residual activity (PAK6 (human)): 97.7%
residual activity (MAPK8 (human)): 85.2%
residual activity (ERBB2 (human)): 101%
residual activity (KIT (human)): 128%
residual activity (MAP3K14 (human)): 101%
residual activity (PRKG2 (human)): 29.7%
residual activity (MARK4 (human)): 38.7%
residual activity (NTRK3 (human)): 28.8%
residual activity (PLK3 (human)): 93.3%
residual activity (PAK7 (human)): 96.7%
residual activity (ITK (human)): 84.1%
residual activity (STK4 (human)): 52%
residual activity (FER (human)): 88.9%
residual activity (CSNK1G2 (human)): 89.5%
residual activity (STK3 (human)): 55.8%
residual activity (JAK3 JH1 JH2 (human)): 77%
residual activity (NEK1 (human)): 89.1%
residual activity (RPS6KA2 KD1 KD2 (human)): 37.9%
residual activity (PRKCB1 (human)): 78.6%
residual activity (CAMK2D (human)): 63.1%
residual activity (PRKCI (human)): 96.2%
residual activity (MATK (human)): 97.3%
residual activity (HIPK3 (human)): 93.3%
residual activity (EPHA4 (human)): 91.3%
residual activity (CSF1R (human)): 96%
residual activity (RPS6KA1 KD1 KD2 (human)): 58.4%
residual activity (AXL (human)): 82.9%
residual activity (STK11 (human)): 90.2%
residual activity (AURKB (human)): 44.3%
residual activity (CDK7 CCNH MNAT1 (human)): 93.1%
residual activity (MET (human)): 76.6%
residual activity (PRKCB2 (human)): 72.8%
residual activity (AKT2 (human)): 86.9%
residual activity (MAPKAPK5 (human)): 86.2%
residual activity (PIM3 (human)): 4.69%
residual activity (DYRK2 (human)): 70.5%
residual activity (IGF1R (human)): 15%
residual activity (EPHB2 (human)): 99.5%
residual activity (PIM1 (human)): 8.84%
residual activity (PKN2 (human)): 88.7%
